Measured values from patent US8501749B2, “Azaquinazolinediones chymase inhibitors” (Boehringer Ingelheim International GmbH, priority 2009, dated 2013).

Target: Chymase (Homo sapiens (Human), UniProt P23946)
Settings: read-out: Chymase IC50; fluorogenic rhodamine 110 peptide substrate, 1 hour at 28° C., 1% DMSO

Chain of Chymase (P23946 22-247): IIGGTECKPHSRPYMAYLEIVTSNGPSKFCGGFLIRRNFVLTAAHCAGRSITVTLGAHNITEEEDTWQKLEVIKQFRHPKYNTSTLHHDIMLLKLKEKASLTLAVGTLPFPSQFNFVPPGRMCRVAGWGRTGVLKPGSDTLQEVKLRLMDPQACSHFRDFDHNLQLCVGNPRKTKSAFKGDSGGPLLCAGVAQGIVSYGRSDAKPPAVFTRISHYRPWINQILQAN

Q: For `CC[C@H](CC(=O)O)n1c(=O)c2ncccc2n(Cc2cn(C)c3cc(C)cc(C)c23)c1=O` [(R)-3-[2,4-Dioxo-1-(1,4,6-trimethyl-1H-indol-3-ylmethyl)-1,4-dihydro-2H-pyrido[3,2-d]pyrimidin-3-yl]-pentanoic acid], which IC50 is on record?
A: 0.4 nM
